Broadly, the CC50 is the concentration that lowers cell viability or growth by half. A higher CC50 goes with better tolerance by the cells. For orientation: EC50 means the midpoint of the concentration-response curve.

Series [1] can be described thus: Cytotoxicity in HeLa cells (ATP content, ATPlite kit). In kind it is cell-based. Particulars: human. Here is the method: (§1) Black 384-well clear-bottom microtiter plates (Corning, Amsterdam, The Netherlands) were filled via acoustic drop ejection using the echo liquid handler (Labcyte, Sunnyvale, California). 200 nL of compound stock solutions (100% DMSO) were transferred to the assay plates. 9 serial 4-fold dilutions of compound were made, creating per quadrant the same compound concentration. The assay was initiated by adding 10 µL of culture medium to each well (RPMI medium without phenol red, 10% FBS-heat inactivated, 0.04% gentamycin (50 mg/mL). All addition steps are done by using a multidrop dispenser (Thermo Scientific, Erembodegem, Belgium). Next, rgRSV224 virus (MOI = 1) diluted in culture medium was added to the plates. rgRSV224 virus is an engineered virus that includes an additional GFP gene (Hallak LK, Spillmann D, Collins PL, Peeples ME. Glycosaminoglycan sulfation requirements for respiratory syncytial virus infection; Journal of virology (2000), 74(22), 10508-13) and was in-licensed from the NIH (Bethesda, MD, USA). Finally, 20 µL of a HeLa cell suspension (3,000 cells/well) were plated. Medium, virus- and mock-infected controls were included in each test. The wells contain […] DMSO per volume. Cells were incubated at 37° C. in a 5% CO2 atmosphere. Three days post-virus exposure, viral replication was quantified by measuring GFP expression in the cells by an in house developed MSM laser microscope (Tibotec, Beerse, Belgium). The EC50 was defined as the 50% inhibitory concentration for GFP expression. In parallel, compounds were incubated for three days in a set of white 384-well microtiter plates (Corning) and the cytotoxicity of compounds in HeLa cells was determined by measuring the ATP content of the cells using the ATPlite kit (Perkin Elmer, Zaventem, Belgium) according to the manufacturer’s instructions. The CC50 was defined as the 50% concentration for cytotoxicity.

The next series concerns rgRSV224 virus. Nature of the series: Antiviral activity: rgRSV224 (GFP) replication in HeLa cells. The class given is cell-based, respiratory syncytial virus (RSV). Here is the method:
as §1

Where [2] appears, read: human respiratory syncytial virus, HeLa, 72 h, read-out: RSV HELA EC50, HeLa cells, rgRSV224 MOI = 1, GFP expression three days post-virus exposure, averaged data of several repeat experiments.
[3] abbreviates: read-out: RSV HELA EC50, HeLa cells, rgRSV224 MOI = 1, GFP expression three days post-virus exposure, averaged data of several repeat experiments.
The mark [4] stands for this setting: human respiratory syncytial virus, HeLa, comparison table 5.3, antiviral RSV assay of Example 5.1.

SMILES strings stand for the structures. Like-named read-outs stand apart in the source and are kept apart here.

`COc1cc(C(=O)NC[C@](O)(c2cc(C(C)(C)O)c(F)c(-c3ccc(F)c(F)c3)n2)C2CC2)cc2cc(C(F)F)nnc12` [compound 270, (-)-N-{2-Cyclopropyl-2-[6-(3,4-Difluorophenyl)-5-Fluoro-4-(2-Hydroxypropan-2-yl)Pyridin-2-yl]-2-Hydroxyethyl}-3-(Difluoromethyl)-8-Methoxycinnoline-6-Carboxamide] registered a CC50 at 3 days in series [1] (TOX HELA CC50) of 15000 nM. For the same molecule, the concentration giving a half-maximal response (EC50) in the series with rgRSV224 virus (setting [2]) turned out to be 0.84 nM.
As to `COc1cc(C(=O)NC[C@](O)(c2nc(-c3ccc(F)cc3)c(F)c(C(C)(C)O)c2F)C(F)(F)F)cc2cc(C)nnc12` [compound 240, (-)-N-{2-[3,5-Difluoro-6-(4-Fluorophenyl)-4-(2-Hydroxypropan-2-yl)Pyridin-2-yl]-3,3,3-Trifluoro-2-Hydroxypropyl}-8-Methoxy-3-Methylcinnoline-6-Carboxamide], in series [1] (TOX HELA CC50), the CC50 at 3 days was determined as 46000 nM. Besides, the EC50 in the series on rgRSV224 virus (setting [2]) was 1.2 nM.
For the molecule `COc1cc(C(=O)NCC(O)(c2cc(C(C)(C)O)c(F)c(-c3ccc(F)cc3)n2)C(F)F)cc2cc(C)nnc12` (single isomer, unassigned; (+)) [compound 249, (+)-N-{3,3-Difluoro-2-[5-Fluoro-6-(4-Fluorophenyl)-4-(2-Hydroxypropan-2-yl)Pyridin-2-yl]-2-Hydroxypropyl}-8-Methoxy-3-Methylcinnoline-6-Carboxamide], the CC50 at 3 days in series [1] (TOX HELA CC50) was found to be 35000 nM. The EC50 in the series with rgRSV224 virus (setting [3]) was more than 1250 nM.
Regarding `COc1cc(C(=O)NCC(O)(c2cc(C(C)(C)O)c(F)c(-c3ccc(C4CC4)cc3)n2)C2CC2)cc2cc(C)nnc12` (single isomer, unassigned; (-)) [compound 254, (-)-N-{2-Cyclopropyl-2-[6-(4-Cyclopropylphenyl)-5-Fluoro-4-(2-Hydroxypropan-2-yl)Pyridin-2-yl]-2-Hydroxyethyl}-8-Methoxy-3-Methylcinnoline-6-Carboxamide], in series [1] (TOX HELA CC50), the cytotoxic concentration (CC50) at 3 days stood at 15000 nM. The EC50 with rgRSV224 virus (setting [2]) worked out at 3.5 nM.
For `COc1cc(C(=O)NC[C@](O)(c2cc(C(C)(C)O)c(F)c(-c3ccc(F)cc3)n2)C(F)(F)F)cc2cc(C)cnc12` [compound 322, (-)Methoxy-3-Methyl-N-(3,3,3-Trifluoro-2-(5-Fluoro-6-(4-Fluorophenyl)-4-(2-Hydroxypropan-2-yl)Pyridm-2-yl)-2-Hydroxypropyl)Qumolme-6-Carboxamide], the CC50 at 3 days in series [1] (TOX HELA CC50) came out at 15000 nM. Besides, in the series with rgRSV224 virus (setting [2]), the EC50 stood at 4.5 nM.
With `Cc1cc2cc(C(=O)NC[C@](O)(c3cc(C(C)(C)O)c(Cl)c(-c4ccc(F)cc4)n3)C3CC3)cc(OC3CC3)c2nn1` [compound 264, (-)-N-{2-[5-Chloro-6-(4-Fluorophenyl)-4-(2-Hydroxypropan-2-yl)Pyridin-2-yl]-2-Cyclopropyl-2-Hydroxyethyl}-8-(Cyclopropyloxy)-3-Methylcinnoline-6-Carboxamide], the CC50 at 3 days in series [1] (TOX HELA CC50) stood at 32000 nM. For the same molecule, the half-maximal effective concentration (EC50) with rgRSV224 virus (setting [2]) is 0.87 nM.
For `COc1cc(C(=O)NC[C@](O)(c2cc(C(C)(C)O)c(Cl)c(-c3ccc(F)cc3)n2)C(F)(F)F)cc2cc(C)nnc12` [compound 232, (-)-N-{2-[5-Chloro-6-(4-Fluorophenyl)-4-(2-Hydroxypropan-2-yl)Pyridin-2-yl]-3,3,3-Trifluoro-2-Hydroxypropyl}-8-Methoxy-3-Methylcinnoline-6-Carboxamide], in that order: 24000 nM and 1.6 nM.
For `COc1cc(C(=O)NC[C@](O)(c2cc(C(C)(C)O)c(Cl)c(-c3ccc(F)cc3)n2)C2CC2)cc2cc(C)c(F)nc12` [compound 215], in that order: 20000 nM and 0.87 nM.
In turn, `COc1cc(C(=O)NC[C@@](O)(c2cc(C(C)(C)O)c(F)c(-c3ccc(F)cc3)n2)C2CC2)cc2cc(C)nnc12` [compound 275] registered a CC50 at 3 days in series [1] (TOX HELA CC50) of 17000 nM. The EC50 in the series with rgRSV224 virus (setting [2]) was 97 nM.
In the case of `COc1cc(C(=O)NC[C@](O)(c2cc(C(C)(C)O)c(F)c(-c3ccc(F)cc3)n2)C2CC2)cc2cc(C)nnc12` [compound 252, (-)-N-{2-Cyclopropyl-2-[5-Fluoro-6-(4-Fluorophenyl)-4-(2-Hydroxypropan-2-yl)Pyridin-2-yl]-2-Hydroxyethyl}-8-Methoxy-3-Methylcinnoline-6-Carboxamide], the CC50 at 3 days was 38000 nM in series [1] (CC50) and 43000 nM in series [1] (TOX HELA CC50). Also, the 50% effective concentration (EC50) in the series on rgRSV224 virus (setting [2]) and with rgRSV224 virus (setting [4]) was 0.3 nM each time.
For `COc1cc(C(=O)NC[C@](O)(c2cc(C(C)(C)O)c(F)c(-c3ccc(F)cc3)n2)C2CC2)cc2cc(C)c(F)nc12` [compound 216, (-)-N-{2-Cyclopropyl-2-[5-Fluoro-6-(4-Fluorophenyl)-4-(2-Hydroxypropan-2-yl)Pyridin-2-yl]-2-Hydroxyethyl}-2-Fluoro-8-Methoxy-3-Methylquinoline-6-Carboxamide], the CC50 at 3 days in series [1] (TOX HELA CC50) stood at 21000 nM. The EC50 with rgRSV224 virus (setting [2]) was 0.62 nM.
On the same counts, the results for `COc1cc(C(=O)NC[C@@](O)(c2cc(C(C)(C)O)c(F)c(-c3ccc(F)cc3)n2)C2C[C@@H]2F)cc2cc(C)nnc12` (single isomer, unassigned) [compound 301, N-((*R)(5-Fluoro-6-(4-Fluorophenyl)-4-(2-Hydroxypropanyl)Pyridinyl)((1*R,2*S)Fluorocyclopropyl)Hydroxyethyl)-8-Methoxy-3-Methylcinnoline-6-Carboxamide] are 22000 nM and 336 nM.
As for `Cc1cc2cc(C(=O)NCC(O)(c3cc(C(C)(C)O)c(Cl)c(-c4ccc(F)cc4)n3)C(F)(F)F)cc(OC(F)(F)F)c2nn1` (single isomer, unassigned; (-)) [compound 261, (-)-N-{2-[5-Chloro-6-(4-Fluorophenyl)-4-(2-Hydroxypropan-2-yl)Pyridin-2-yl]-3,3,3-Trifluoro-2-Hydroxypropyl}-3-Methyl-8-(Trifluoromethoxy)Cinnoline-6-Carboxamide], in series [1] (TOX HELA CC50), the CC50 at 3 days amounted to 13000 nM. Besides, in the series with rgRSV224 virus (setting [2]), the EC50 was 13 nM.
Turning to `COc1cc(C(=O)NC[C@](O)(c2cc(C(C)(C)O)c(F)c(-c3ccc(F)cc3)n2)C(F)(F)F)cc2cc(C)nnc12` [compound 234], the CC50 at 3 days in series [1] (CC50) and in series [1] (TOX HELA CC50) was 23000 nM in each case. Moreover, the EC50 turned out to be 0.6 nM in the series on rgRSV224 virus (setting [4]) and 0.82 nM with rgRSV224 virus (setting [3]).
On to `COc1cc(C(=O)NC[C@](O)(c2cc(C(C)(C)O)cc(-c3ccc(F)cc3)n2)C2CC2)cc2cc(C)nnc12` [compound 304], for which, in series [1] (TOX HELA CC50), the CC50 at 3 days was 23000 nM. The EC50 in the series on rgRSV224 virus (setting [2]) is 2.1 nM.
For `COc1cc(C(=O)NC[C@](O)(c2nc(-c3ccc(F)cc3)c(F)c(C(C)(C)O)c2F)C(F)(F)F)cc2cc(C3CC3)cnc12` [compound 228, (-)Cyclopropyl-N-{2-[3,5-Difluoro-6-(4-Fluorophenyl)-4-(2-Hydroxypropan-2-yl)Pyridin-2-yl]-3,3,3-Trifluoro-2-Hydroxypropyl}-8-Methoxyquinoline-6-Carboxamide], in that order: 10000 nM and 13 nM.
`COc1cc(C(=O)NC[C@](O)(c2cc(C(C)(C)O)c(F)c(-c3ccc(F)cc3)n2)C(F)(F)F)cc2cc(C3CC3)nnc12` [compound 286, (-)Cyclopropyl-8-Methoxy-N-(3,3,3-Trifluoro-2-(5-Fluoro-6-(4-Fluorophenyl)-4-(2-Hydroxypropan-2-yl)Pyridin-2-yl)-2-Hydroxypropyl)Cinnoline-6-Carboxamide] showed a CC50 at 3 days in series [1] (TOX HELA CC50) of 8900 nM. Further, the EC50 in the series on rgRSV224 virus (setting [2]) came to 2.6 nM.
With `CC(C)(O)c1cc([C@@](O)(CNC(=O)c2cc(OC3CC3)c3ncccc3c2)C(F)(F)F)nc(-c2ccc(F)cc2)c1F` [Compound A, reference compound], the CC50 at 3 days in series [1] (CC50) worked out at 37000 nM. In the series with rgRSV224 virus (setting [4]), it took 14 nM to reach a half-maximal effect (EC50).
In series [1] (TOX HELA CC50), `COc1cc(C(=O)NC[C@](O)(c2nc(-c3ccc(F)cc3)c(F)c(C(C)(C)NC(C)=O)c2F)C(F)(F)F)cc2cc(C)nnc12` [compound 241, (-)-N-{2-[4-(2-Acetamidopropan-2-yl)-3,5-Difluoro-6-(4-Fluorophenyl)Pyridin-2-yl]-3,3,3-Trifluoro-2-Hydroxypropyl}-8-Methoxy-3-Methylcinnoline-6-Carboxamide] gave a CC50 at 3 days of 50000 nM. Further, the EC50 in the series on rgRSV224 virus (setting [2]) worked out at 1.5 nM.
Turning to `Cc1cnc2c(OC3CC3)cc(C(=O)NC[C@](O)(c3cc(C(C)(C)O)c(F)c(-c4ccc(F)cc4)n3)C(F)(F)F)cc2c1` [compound 323, (-)Cyclopropoxy-3-Methyl-N-(3,3,3-Trifluoro-2-(5-Fluoro-6-(4-Fluorophenyl)-4-(2-Hydroxypropan-2-yl)Pyridin-2-yl)-2-Hydroxypropyl)Quinoline-6-Carboxamide], in the series on rgRSV224 virus (setting [3]), the 50% effective concentration (EC50) stood at 3.8 nM.
